Holding throughout (assay type): in vivo
Experiment [1] has as its system Echinochloa crus-galli (ECHCG). The experiment is described as follows: B. Herbicidal post-emergence efficacy, ECHCG. The conditions noted are these: rated visually after about 3 weeks. Summed up: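 Visual percent efficacy relative to untreated controls (0% unaffected, 100% dead), scored roughly 3 weeks after foliar spraying of one-leaf-stage pot-grown plants with WP or EC preparations at application rates up to 1280 g/ha in 600 L/ha water containing 0.5% additive.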

The next experiment deals with Setaria viridis (SETVI). The experiment is described as follows: A. Herbicidal pre-emergence efficacy, SETVI. A digest of the protocol:
(§1)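 Applied before emergence onto covering soil at rates of 1280 g/ha or less, using 600 L/ha spray water with 0.5% additive. Scoring: visual % efficacy after ~3 weeks, greenhouse.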

In a further experiment the test system is Kochia scoparia (KCHSC). As to the kind of experiment: A. Herbicidal pre-emergence efficacy, KCHSC. Summed up:
as §1

Experiment [2] has as its system Echinochloa crus-galli (ECHCG). The experiment is described as follows: A. Herbicidal pre-emergence efficacy, ECHCG. The conditions noted are these: scored visually after about 3 weeks vs untreated controls. Summed up:
as §1

The test system of experiment [3] is Veronica persica (VERPE). As to the kind of experiment: C. Herbicidal pre-emergence efficacy, VERPE. As to conditions: scored after about 3 weeks. A digest of the protocol: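 Pre-emergence test: formulated compounds sprayed as aqueous suspension or emulsion with 0.5% additive at 600 l/ha onto soil covering sown seeds, at rates corresponding to 320 g/ha or less. After about 3 weeks in greenhouse, efficacy scored visually as percent versus untreated controls (100% = plants dead).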

Experiment [4] has as its system Veronica persica (VERPE). As to the kind of experiment: A. Herbicidal pre-emergence efficacy, VERPE. As to conditions: for Pre-emergence efficacy against VERPE: dosage 80 g/ha. Summed up:
as §1

The test system of experiment [5] is Matricaria inodora (MATIN). The experiment is described as follows: A. Herbicidal pre-emergence efficacy, MATIN. Summed up:
as §1

Setting [6] is: pre-emergence, dosage 1280 g/ha.
Where [7] appears, read: 80 g/ha, scored visually after about 3 weeks vs untreated controls.

The values below come from patent publication US20240174618A1, “SUBSTITUTED (2-HETEROARYLOXYPHENYL)SULFONATES, SALTS THEREOF AND THEIR USE AS HERBICIDAL AGENTS” (Bayer Aktiengesellschaft, priority 2021, published 2024).

Consider `CCCCCS(=O)(=O)Oc1ccccc1Oc1ncc(Cl)cn1` [Example I-24], for which the “Post-emergence efficacy against ECHCG in %” value in experiment [1] (1280 g/ha) is reported as 100%. The “Pre-emergence efficacy against SETVI” value with Setaria viridis (SETVI) (dosage 320 g/ha) and in the experiment on Setaria viridis (SETVI) (dosage 1280 g/ha) was 100% throughout. In addition, the “Pre-emergence efficacy against KCHSC” value in the experiment on Kochia scoparia (KCHSC) (setting [6]) amounted to 100%. Besides, the “Pre-emergence efficacy against ECHCG” value in experiment [2] (320 g/ha) and in experiment [2] (1280 g/ha) was 100% each time. Moreover, the “Pre-emergence efficacy against VERPE” value with Veronica persica (VERPE) [3] (320 g/ha) is given as 90%.

As for `O=S(=O)(CCCC(F)(F)F)Oc1c(Cl)cccc1Oc1ncc(Br)cn1` [Example I-34], the “Post-emergence efficacy against ECHCG in %” value in experiment [1] (320 g/ha) and in experiment [1] (1280 g/ha) was 90% each time. Moreover, the entries for the “Pre-emergence efficacy against SETVI” value in the experiment on Setaria viridis (SETVI) (dosage 80 g/ha), in the experiment with Setaria viridis (SETVI) (dosage 320 g/ha) and with Setaria viridis (SETVI) (dosage 1280 g/ha) were 90%, 90% and 100%, respectively. The “Pre-emergence efficacy against KCHSC” value in the experiment on Kochia scoparia (KCHSC) (setting [6]) is 90%. Further, the entries for the “Pre-emergence efficacy against VERPE” value in the experiment on Veronica persica (VERPE) [3] (80 g/ha) and in the experiment with Veronica persica (VERPE) [3] (320 g/ha) were 80% and 100%, respectively. Moreover, the “Pre-emergence efficacy against VERPE in %” value with Veronica persica (VERPE) [4] (320 g/ha) is reported as 90%; with Veronica persica (VERPE) [4] (1280 g/ha), 100%.

Take `N#Cc1cccc(Oc2ncc(Cl)cn2)c1OS(=O)(=O)CCCC(F)(F)F` [Example I-81]: the “Pre-emergence efficacy against VERPE” value in the experiment on Veronica persica (VERPE) [3] (80 g/ha) and with Veronica persica (VERPE) [3] (320 g/ha) was 100% each time.

For `O=S(=O)(CCC(F)=C(F)F)Oc1c(F)cccc1Oc1ncc(Cl)cn1` [Example I-70], the “Pre-emergence efficacy against VERPE” value in the experiment with Veronica persica (VERPE) [3] (80 g/ha) is listed as 80%; with Veronica persica (VERPE) [3] (320 g/ha), 100%.

In the case of `O=S(=O)(CCCC(F)F)Oc1c(F)cccc1Oc1ncc(Cl)cn1` [Example I-56], the “Post-emergence efficacy against ECHCG in %” value in experiment [1] (320 g/ha) and in experiment [1] (1280 g/ha) was 90% throughout. Besides, the “Pre-emergence efficacy against SETVI” value in the experiment with Setaria viridis (SETVI) (dosage 80 g/ha), with Setaria viridis (SETVI) (dosage 320 g/ha) and with Setaria viridis (SETVI) (dosage 1280 g/ha) was 100% throughout. Also, the “Pre-emergence efficacy against MATIN” value in experiment [5] (setting [6]) is listed as 100%. Further, the “Pre-emergence efficacy against KCHSC” value in the experiment with Kochia scoparia (KCHSC) (setting [7]) was 100%; in the experiment with Kochia scoparia (KCHSC) (pre-emergence, dosage 320 g/ha), 100%; in the experiment with Kochia scoparia (KCHSC) (setting [6]) it was 100%. For the same compound, the “Pre-emergence efficacy against ECHCG” value in experiment [2] (80 g/ha), in experiment [2] (320 g/ha) and in experiment [2] (1280 g/ha) was 100% in each case. For the same compound, the “Pre-emergence efficacy against VERPE in %” value in the experiment with Veronica persica (VERPE) [4] (320 g/ha) and in the experiment on Veronica persica (VERPE) [4] (1280 g/ha) was 100% throughout.

Regarding `O=S(=O)(CCC(F)(F)F)Oc1c(F)cccc1Oc1ncc(Cl)cn1` [Example I-48], the “Post-emergence efficacy against ECHCG in %” value in experiment [1] (320 g/ha) and in experiment [1] (1280 g/ha) was 90% in each case. Also, the “Pre-emergence efficacy against SETVI” value in the experiment on Setaria viridis (SETVI) (dosage 80 g/ha) is on record as 90%; in the experiment on Setaria viridis (SETVI) (dosage 320 g/ha), 90%; in the experiment with Setaria viridis (SETVI) (dosage 1280 g/ha), 100%. For the same compound, the “Pre-emergence efficacy against MATIN” value was determined as 100% in experiment [5] (320 g/ha, scored visually after about 3 weeks vs untreated controls) and 100% in experiment [5] (setting [6]). Also, the “Pre-emergence efficacy against KCHSC” value was found to be 100% in the experiment on Kochia scoparia (KCHSC) (setting [7]); 100% in the experiment on Kochia scoparia (KCHSC) (pre-emergence, dosage 320 g/ha); 100% in the experiment with Kochia scoparia (KCHSC) (setting [6]). The “Pre-emergence efficacy against ECHCG” value in experiment [2] (80 g/ha), in experiment [2] (320 g/ha) and in experiment [2] (1280 g/ha) was 90% in each case. In addition, the “Pre-emergence efficacy against VERPE in %” value in the experiment with Veronica persica (VERPE) [4] (320 g/ha) and in the experiment on Veronica persica (VERPE) [4] (1280 g/ha) was 100% throughout. In the experiment on Veronica persica (VERPE) [4], the “Pre-emergence efficacy against VERPE” value is reported as 90%.

With `Cc1cccc(Oc2ncc(F)cn2)c1OS(=O)(=O)CCCC(F)(F)F` [Example I-46], the “Post-emergence efficacy against ECHCG in %” value in experiment [1] (80 g/ha) was found to be 90%; in experiment [1] (320 g/ha), 90%; in experiment [1] (1280 g/ha), 100%. Besides, the “Pre-emergence efficacy against SETVI” value in the experiment on Setaria viridis (SETVI) (dosage 80 g/ha) is 90%; with Setaria viridis (SETVI) (dosage 320 g/ha), 100%; in the experiment on Setaria viridis (SETVI) (dosage 1280 g/ha) it was 100%. The “Pre-emergence efficacy against MATIN” value in experiment [5] (setting [6]) was found to be 90%. For the same compound, in the experiment with Kochia scoparia (KCHSC) (setting [6]), the “Pre-emergence efficacy against KCHSC” value was 90%. The “Pre-emergence efficacy against ECHCG” value in experiment [2] (80 g/ha), in experiment [2] (320 g/ha) and in experiment [2] (1280 g/ha) was 100% in each case. Further, the “Pre-emergence efficacy against VERPE in %” value in the experiment on Veronica persica (VERPE) [4] (320 g/ha) amounted to 90%; in the experiment with Veronica persica (VERPE) [4] (1280 g/ha), 100%. The “Pre-emergence efficacy against VERPE” value in the experiment with Veronica persica (VERPE) [4] was found to be 90%.
